Results taken from patent US7560473B2 (Institute of Pharmacology and Toxicology Academy of …, priority 2001, dated 2009).

Legend:
[1] = test system: jirds; assay: Pan-cerebral ischemia-reperfusion injury in jirds (BCAO); format: in vivo; conditions: 7 days, dosage-dependent
Protocol: Biological Activity Experiment 7 The Protective Effects of compound 1 on Pan-Cerebral Ischemia-Reperfusion Injury in Jirds
The methods of biological activity experiment were carried out as follows: equal amounts of male and female jirds (60-70 g) were subjected to bilateral cervical aorta occlusion (BCAO) under narcotism. The drugs or equal amounts of physiological saline solution were injected peritoneally at 30 min before occlusion. After the blood flow in the bilateral cervical aorta was blocked for 5 min, reperfusion was restored and the drug was administered once a day for 7 days. During the BCAO, the body temperature was maintained at 37° C. In the control group, the cervical aorta was only exposed, while not blocked for blood flow. The animals were divided in 6 groups randomly: control group, ischemic group and compound-treated group (0.5, 1.0, 2.0 and 4.0 mg.kg^−1, ip). 7 days after BCAO, the animals were deeply anesthetized by injecting peritoneally 80 mg.kg^−1 pentobarbitol sodium, and perfused with 50 mL physiological saline solution and 4% paraformaldehyde through heart. The brain was dissected, immersed in 4% paraformaldehyde for 24 h, dehydrated, cleared, embedded with paraffin, sectioned and stained with HE. TUNEL staining was employed to detect the nerve apoptosis.

[2] = test system: outward potassium currents in smooth muscle cells derived from intrapulmonary arteries; assay: Whole cell recording of outward potassium currents in intrapulmonary arterial SMCs and glibenclamide antagonism; format: cell-based, Wistar rats
Protocol: Effects of Compound 1 on Potassium Currents in Isolated Intrapulmonary arterial SMCs and Glibenclamide Antagonism
The outward potassium currents were recorded in smooth muscle cells derived from intrapulmonary arteries of normotensive rats. Cells were sealed, clamped at −70 mV and depolarized to +50 mV at an increasing step of 10 mV with 100 ms duration. After application of compound 1 at the concentration of 10 μmol L^−1, the amplitude of the currents in 5/8 cells was increased to 115.4±2.8% compared with control recorded before compound application (P<0.01 n=5). While in the presence of both compound 1 and glibenclamide at the concentration of 10 μmol L^−1 and 30 μmol L^−1 respectively, the amplitude of the outward potassium currents in 7/7 cells was detected to be 83.1±8.3% of control, which was decreased compared with the presence of compound 1 only (P<0.01 n=7).
2. Preparation of smooth muscle cells from intrapulmonary arteries: Male Wistar rats were killed by decapitation. The intrapulmonary arteries were isolated and moved quickly into physiological salt solutions (PSS, 4° C.) Then the arteries were cut longitudinally and cut into small segments after scraping off the endothelium gently with a cotton swab. The fragments were then incubated at 37° C. in Ca^2+-free PSS for 20 to 30 minutes. […]

[3] = test system: outward potassium currents of rat tail arterial SMCs; assay: Whole cell recording of outward potassium currents in rat tail arterial SMCs; format: cell-based, Wistar rats; conditions: outward potassium current amplitude before compound application, same cells; X ± SD n = 5
From the text: Biological activity experiments 6. The effects of novel compounds on potassium currents in isolated arterial vascular smooth muscle cells (SMCs).
The outward currents were, elicited in rat tail arterial SMCs by superfusing extracellular solution under whole cell recording configuration that the depolarizing pulse were applied from −30 mV to +100 mV with the holding potential of −40 mV in 100 ms, 10 mV clamp steps, a frequency of 5 KHz. The compounds were applied in the bath at the concentrations of 100 μmol L^−1. The amplitude of the outward potassium currents was recorded before and after compound application Values were expressed as means±SD. Statistical significance between two groups was evaluated by student's t-test for paired data * P<0.05 **P<0.01 vs control.
1. Preparation of single smooth muscle cells from rat tail arteries: Male Wistar rats (200-250 g) were killed by exsanguination. The tail artery was dissected out and transferred into cold physiological salt solution (PSS) of the following composition (in mM): NaCl 118.3, KCl 4.7, KH2PO4 1.2, MgSO4 1.2, NaHCO3 25.0, CaCl2 2.5, EDTA 0.026 and Glucose 5.0 pH7.4. With the use of a dissecting microscope, the connective tissues were removed and the artery was cut open longitudinally. Endothelium was removed carefully with a cotton swab then the artery was cut into segments with 1 mm long and placed in 4° C. the extracellular solution containing (in mM) NaCl 130, KCl 5, MgCl2 1.2, HEPES 10, Glucose 10, pH7.2 for 20 min. After this incubation, the medium was changed to enzyme solution which was composed of collagenase I (1 mg ml^−1), papain (5 mg ml^−) and bovine serum albumin (2 mg ml^−1). The tissues, were incubated in this solution for 40 min, and then rinsed three times triturated using a fire-polished Pasteur pipette until the medium turned cloudily. The cell suspension was stored in the refrigerator at 4° C.
3. Whole cell recordings: A bath dish with the smooth muscle cells (SMCs) attached and superfused with the extracellular solution at a flow rate of 2 ml min^−1 was mounted onto the stage of an inverted-phase contrast microscope. The microelectrodes having a resistance of (5-8 MΩ) were made from boroscilicate thin-wall glass capillaries, using an automatic multiple-stage, electronic puller (PP830 Japan) and then heat-polished. After establishing a high resistance seal, the patch membrane was disrupted by negative pressure. A commercial patch clamp amplifier (Axon 200B) was used to generate and apply voltages and sample current signals from the cell.

CC(C)NC(C)(C)C(C)C [compound 1, N-(1-methylethyl)-2,3-dimethyl-2-butylamine]
number of dead pyramidal nerve of hippocampal CA1 region (HE staining) ([1]; 0.5-4.0 mg.kg^−1.d^−1 ip): significantly decreased the number of dead pyramidal nerve
apoptosis of pyramidal nerve of hippocampal CA1 region (TUNEL) ([1]; 0.5-4.0 mg.kg^−1 ip): significantly alleviate the apoptosis
amplitude of the outward potassium currents compared with control ([2]; compound 1 10 μmol L^−1, 5/8 cells, n=5): 115.4±2.8%
amplitude of the outward potassium currents, of control ([2]; compound 1 10 μmol L^−1 in the presence of glibenclamide 30 μmol L^−1, 7/7 cells, n=7): 83.1±8.3%
Currents, Control (before compound application) [3]: 0.41 ± 0.08 nA
